Results reported in patent publication US20250041377A1, “PHARMACEUTICAL USE” (ENLITISA (SHANGHAI) PHARMACEUTICAL CO., LTD., priority 2018, published 2025).
Where a SMILES comes first, the peptide text is derived from it. [ ]: non-standard residue; d: D form. Hyp = O=C(O)[CH]1C[CH](O)CN1

Key:
[1] = tested on: allergic skin (redness, itching, swelling); assay: Liquid spray to treat allergic dermatitis; type: in vivo, human
Description: Compound B (see Example 1 above) was dissolved in Water for Injection (WFI; prepared from a TC-RO-0.25/h-2 Water Treatment System, Yangzhou Tiancheng Water Treatment Devices & Engineering Co., Ltd., Yangzhou, China). The concentration was 0.3 mg/mL.
The enrolled subjects in the study had allergic skin. Prior to treatment, the patients presented symptoms including skin redness, itching and swelling. Subjects were required to use the liquid spray in the morning and the evening after facial cleansing.

[2] = tested on: bleomycin-induced pulmonary fibrosis; assay: Idiopathic pulmonary fibrosis (IPF) model; type: in vivo, Sprague Dawley rats; parameters: lung coefficient: unit not given here
Description: Experimental animals and grouping: 40 adult male Sprague Dawley rats, after 7 days of adaptive feeding, were divided into 4 groups: sham-operation group (Sham), IPF model group (no treatment; Model), test group (Compound B) and positive control group (Positive Control).
The test were administered Compound B, at a dose of 130 μg/rat, which was introduced by aerosolized inhalation. Oral administration of pirfenidone (Etuary®, Beijing Continent Pharmaceutical Co., Ltd., Beijing, China) as a 120 mg/kg single-bolus dose served as the positive control.
A pulmonary fibrosis model was established by intratracheal instillation of bleomycin. The rats were anaesthetised and placed on an operating table in the supine position, to expose the trachea. Bleomycin (5 mg/kg) saline solution was injected into the trachea through the gap between the tracheal cartilage rings. The sham-operation group were given an equal volume of normal saline. Shortly after administration, the rats were lifted vertically and were rotated, in order to evenly disperse the drug. Once the rats had recovered, after approximately 5 days, they were administrated the different drugs according to the plan for 28 days, consecutively.
The exhaust volume of the atomizing device was 0.15 mL per minute. The inhalation time for each rat was 1 minute.
At Day 29 following drug administration, rats were anesthetized by i.p. injection of chloral hydrate. After orbital blood collection, the rats were sacrificed. The thoracic cavity was quickly opened and the lung was collected for further analysis. The lung wet weight was measured, and the lung coefficient was calculated (lung wet weight/rat weight×1000). The tissue was stored in refrigerator at −80° C. for further use.
A piece of lung tissue was accurately weighed, and 9 times the weight of saline was added. Then, the tissue was homogenized and centrifuged for 10 minutes at 3000 rpm. The homogenate was used to detect the expression of the transformation growth factor (TGF-β1), tumor necrosis factor-α (TNF-α) and alpha-smooth muscle actin (α-SMA). Standard ELISA methods were used for the detection. The contents of malonaldehyde (MDA) and the activity of superoxide dismutase (SOD) in lung tissue were also detected.

common cold = assay: Liquid spray to treat common cold; type: in vivo, human
Description: Compound B was dissolved in Injection water (WFI; from a TC-RO-0.25 T/h-2 water treatment system, Yangzhou Tiancheng Water Treatment Devices & Engineering Co., Ltd., Yangzhou, China). The concentration was 0.5 mg/mL. 5 mL was loaded into a plastic water spray bottle.
The enrolled subject in the study was inflicted with a common cold for 2 days prior to treatment. Other cold treatments were not used before treatment. The subject, who presented a cough, a sore throat and a loss of voice, was required to use the liquid spray (3 to 5 presses each time, in the morning and evening.

[3] = lung tissue homogenate, Day 29, Compound B 130 μg/rat aerosolized inhalation, pirfenidone gavage, 28 days

`CC(N)C(=O)NC(CCCCN)C(=O)N1CCCC1C(=O)NC(CO)C(=O)NC(Cc1ccc(O)cc1)C(=O)N1CC(O)CC1C(=O)N1CC(O)CC1C(=O)NC(C(=O)NC(Cc1ccc(O)cc1)C(=O)NC(CCCCN)C(=O)O)C(C)O` (stereo not drawn) [Compound B, Ala-Lys-Pro-Ser-Tyr-Hyp-Hyp-Thr-Tyr-Lys] (H-AKPSY[Hyp][Hyp]TYK-OH; configuration not given here) was tested, and the “time to relief of itching” value ([1]; liquid spray 0.3 mg/mL in Water for Injection, first use, subjects with allergic skin) was ≤ 8 min, the “capillary congestion, facial redness and swelling” value ([1]; liquid spray 0.3 mg/mL, morning and evening, after 1 day of use) was “no longer red and swollen after 1 day of use” and the “inhibition of production of TNF-α, α-SMA and TGF-β1 in lung tissue” value ([2]; compared with pirfenidone) was “almost equivalent to that of the known IPF drug, pirfenidone”. The TGF-β1 [2, 3] was 0.40 ± 0.02 ng/mg protein, the TNF-α [2, 3] was 187.91 ± 12.20 pg/mg protein and the α-SMA [2, 3] was 10.85 ± 1.42 pg/mg protein. The MDA ([2]; lung tissue, Day 29) was 0.17 ± 0.04 U/mg protein, the SOD ([2]; lung tissue, Day 29) was 48.64 ± 1.85 U/mg protein and the lung coefficient ([2]; lung wet weight/rat weight×1000, Day 29) was 5.14 ± 0.37. The throat pain (common cold; liquid spray 0.5 mg/mL in WFI, 3 to 5 presses morning and evening, after the first use) was “throat pain was relieved after the first use” and the “throat pain and voice” value (common cold; liquid spray 0.5 mg/mL, after the second use) was “throat was no longer painful and could speak”.
